Assay results as given in patent US9435813B2, “Biomarkers of hemorrhagic shock” (The General Hospital Corporation, priority 2010, dated 2016).
“Also recorded” adds a separate entry of the source.

What was measured:
claudin-3 mRNA = test: RT-PCR of intestinal claudin-3 mRNA after hemorrhagic shock; type: in vivo; settings: rat intestine, 1, 6 and 24 hours
Description: To assess whether gene expression of claudin-3 responds to HS and VPA treatment, the mRNA expression of rat intestines among the groups of sham, HS and VPA treatment was compared at 1, 6 and 24 hours using RT-PCR methods.

hemorrhagic shock [1] = test: Survival in lethal model of hemorrhagic shock; type: in vivo; settings: rat, HS 60% blood loss, VPA 300 mg/kg; untreated animals did not survive
Description: (§1) An animal model of HS was used. Male Wistar-Kyoto rats (254.12±2.71 grams, Harlan, Indianapolis, Ind.) were used in the lethal model of hemorrhagic shock (Shults et al., J Trauma 2008; 64(3):629-638). Each animal's estimated blood volume was calculated using the formula: [estimated blood volume (mL)=weight (g)×0.06 (mL/g)+0.77]. About 1.3 mL of blood was manually drawn at the beginning and end of hemorrhage for analysis (included in the total hemorrhage calculation). The animals were hemorrhaged (40% of their calculated total blood volume) via a femoral arterial catheter over 10 minutes, followed by a 20% blood volume venous bleed over the next 50 minutes. Bleeding was performed using Kent Scientific adjustable pumps (Kent Scientific Corporation, N.J.). VPA (300 mg/kg) was administered via a femoral vein catheter after completion of hemorrhage. Blood pressure was monitored continuously during the experiment. The mean arterial pressure (MAP) in animals that were subjected to hemorrhage dropped sharply after bleeding to approximately 20 mm Hg. […]
Male Wistar-Kyoto rats underwent HS (60% blood loss) followed by treatment with or without VPA (300 mg/kg). Serum samples were obtained at baseline (BL), end of hemorrhage (EH), and after VPA treatment (VPA), and subjected to iTRAQ and analyzed by liquid chromatography-tandem mass spectrometry (LC-MS/MS). […]

CINC-1 [2] = test: Serum CINC-1, multiplex electrochemiluminescence assay, sub-lethal hemorrhagic shock; type: in vivo; settings: rat, 40% blood volume hemorrhage, VPA 300 mg/kg IV vs vehicle
Description: (§2) Anesthetized Wistar-Kyoto rats (250-300 g) underwent 40% blood volume hemorrhage over 10 minutes followed by 30 minutes of un-resuscitated shock and were treated with 1) VPA 300 mg/kg or 2) vehicle control. Blood samples were obtained at baseline, following shock, and prior to sacrifice (1 hour, 4 hours, and 20 hours; n=3-4/time point/group). Serum samples were screened for possible biomarkers using a multiplex electrochemiluminescence detection assay, and results were confirmed using ELISA. Additionally, lung tissue lysate was examined for chemokine and myeloperoxidase (MPO) levels as markers for neutrophil infiltration and ALI. Additionally, lung CINC-1 (a chemokine belonging to the IL-8 family that promotes neutrophil chemotaxis) mRNA levels were measured by real-time PCR.
Animals were hemorrhaged 40% of their total blood volume to induce sub-lethal HS, and were sacrificed at 1, 4, and 20 hours following hemorrhage and treatment. This degree of blood loss was selected to allow 100% of animals in all groups to survive until the designated time of sacrifice. Selected laboratory values were measured, and were indicative of moderate HS (mean lactate 0.6 mmol/L at baseline, 4.3 mmol/L after hemorrhage; mean baseline hemoglobin 12.0 g/dL at baseline, 9.6 g/dL after hemorrhage). […]

22.7 kDa serum protein = test: SELDI-TOF MS serum protein profiling in lethal hemorrhagic shock model; type: in vivo; settings: rat, 60% blood loss, VPA 300 mg/kg via femoral vein, 24 hours after treatment
Description: as §1
ProteinChip profiling was performed on CM10 ProteinChip arrays (Ciphergen Biosystems, Fremont Calif.), as recommended by the manufacturer. […] The arrays were then inserted into a ProteinChip (Enterprise edition) TOF-MS and read at an optimized laser setting of 2000 nJ-5000 nJ. […]

myeloperoxidase (MPO) = test: Lung tissue myeloperoxidase (MPO) level, sub-lethal hemorrhagic shock; type: in vivo; settings: rat, 40% blood volume hemorrhage, VPA 300 mg/kg IV vs vehicle, 20 hour time point, p<0.05
Description: as §2
(§3) Animals were hemorrhaged 40% of their total blood volume to induce sub-lethal HS, and were sacrificed at 1, 4, and 20 hours following hemorrhage and treatment. […] Selected laboratory values were measured, and were indicative of moderate HS (mean lactate 0.6 mmol/L at baseline, 4.3 mmol/L after hemorrhage; mean baseline hemoglobin 12.0 g/dL at baseline, 9.6 g/dL after hemorrhage).
Myeloperoxidase (MPO) levels were measured in lung whole tissue extract as a marker for neutrophil infiltration (n=3-4/time point/group).

acute lung injury = test: Acute lung injury (ALI) following hemorrhagic shock; type: in vivo; settings: rat, 40% blood volume hemorrhage, VPA 300 mg/kg
hemorrhagic shock [3] = settings: rats, literature (Shults et al. 2008; Li et al. 2008; WO 2007117272); cited from earlier work
claudin-3 [4] = test: Western blot of intestinal claudin-3 protein after hemorrhagic shock; type: in vivo; settings: rat intestine, 1, 6, and 24 hours after VPA treatment
Description: as §1, with “experiment.” for “experiment. The mean arterial pressure (MAP) in animals that were subjected to hemorrhage dropped sharply after bleeding to approximately 20 mm Hg.”
Claudin-3 is a TJ protein that has important roles in establishing epithelial and endothelial barriers. To find out whether HS and VPA treatment affect claudin-3 protein in TJ of epithelial cells, protein expression was analyzed in intestinal tissue obtained from sham, HS 1 hour (1 hour after hemorrhagic shock), and VPA-treated animals (1 hour, 6 hours, and 24 hours after treatment). […]

claudin-3 [5] = test: Western blot of serum claudin-3 after hemorrhagic shock; type: in vivo; settings: rat serum, 1 hour following VPA treatment; two bands seen in HS 1 hour group
Description: An animal model of HS was used. Male Wistar-Kyoto rats (254.12±2.71 grams, Harlan, Indianapolis, Ind.) were used in the lethal model of hemorrhagic shock (Shults et al., J Trauma 2008; 64(3):629-638). Each animal's estimated blood volume was calculated using the formula: [estimated blood volume (mL)=weight (g)×0.06 (mL/g)+0.77]. About 1.3 mL of blood was manually drawn at the beginning and end of hemorrhage for analysis (included in the total hemorrhage calculation). The animals were hemorrhaged (40% of their calculated total blood volume) via a femoral arterial catheter over 10 minutes, followed by a 20% blood volume venous bleed over the next 50 minutes. Bleeding was performed using Kent Scientific adjustable pumps (Kent Scientific Corporation, N.J.). VPA (300 mg/kg) was administered via a femoral vein catheter after completion of hemorrhage. Blood pressure was monitored continuously during the experiment. […]
To assess whether claudin-3 is a potential biomarker, independent serum samples were taken of sham (no hemorrhage and no treatment), HS 1 hour (1 hour following hemorrhagic shock), and VPA 1 hour (1 hour following VPA treatment) from individual rats and the level of the candidate biomarker was determined by Western blot with anti-claudin-3 antibody. […]

claudin-3 [6] = test: iTRAQ quantification of claudin-3 peptide in serum after hemorrhagic shock; type: in vivo; settings: rat serum, 24 hours post-VPA 300 mg/kg; BL to HS ratio 0.323
Description: as §1
Immunodepletion of serum abundant proteins was performed as follows. […] Column performance was monitored by sodium dodecyl sulphate-polyacrylamide gel electrophoresis (SDS-PAGE) followed by Coomassie Blue staining (BioBlue, BioRad). […]

CINC-1 [7] = test: Serum CINC-1 ELISA, sub-lethal hemorrhagic shock; type: in vivo; settings: rat, 40% blood volume hemorrhage, VPA 300 mg/kg IV vs vehicle, 4 hours, p<0.05
Description: as §2
(§4) Animals were hemorrhaged 40% of their total blood volume to induce sub-lethal HS, and were sacrificed at 1, 4, and 20 hours following hemorrhage and treatment. This degree of blood loss was selected to allow 100% of animals in all groups to survive until the designated time of sacrifice. Selected laboratory values were measured, and were indicative of moderate HS (mean lactate 0.6 mmol/L at baseline, 4.3 mmol/L after hemorrhage; mean baseline hemoglobin 12.0 g/dL at baseline, 9.6 g/dL after hemorrhage).
Conventional ELISA was used to confirm the data obtained using the multiplex electrochemiluminescence assay.

CINC-1 [8] = test: Lung tissue CINC-1 ELISA, sub-lethal hemorrhagic shock; type: in vivo; settings: rat, 40% blood volume hemorrhage, VPA 300 mg/kg IV vs vehicle, 20 hour time point, p=0.17
Description: as §2, §4
ELISA was used to measure CINC-1 levels in lung whole tissue extract (n=3-4/time point/group).

CINC-1 mRNA = test: Lung CINC-1 mRNA by real-time PCR, sub-lethal hemorrhagic shock; type: in vivo; settings: rat, 40% blood volume hemorrhage, VPA 300 mg/kg IV vs vehicle, 1, 4 and 20 hours
Description: as §2, §3
To rule out possibility that an increase of CINC-1 protein in lung results from induction of the gene expression, lung tissue was assessed for CINC-1 mRNA levels (n=3-4/time point/group). […]

SMILES: CCCC(CCC)C(=O)O [VPA, Valproic acid]
- intestinal claudin-3 mRNA expression (claudin-3 mRNA): did not significantly change
- survival after hemorrhagic shock (hemorrhagic shock [1]): significantly improved survival; also recorded: survived
- HS-induced rise of serum CINC-1 (multiplex electrochemiluminescence assay) (CINC-1 [2]): appeared to be attenuated
- serum level of 22.7 kDa protein (SELDI-TOF MS) versus HS (22.7 kDa serum protein): down-regulated
- HS-induced increase of lung MPO levels (myeloperoxidase (MPO)): significantly attenuated this effect
- development of ALI after hemorrhage (acute lung injury): inhibited and reduced
- survival after lethal HS (hemorrhagic shock [3]): improves survival
- intestinal claudin-3 protein level by Western blot (claudin-3 [4]): significantly attenuated the HS-induced reduction of claudin-3
- serum claudin-3 by Western blot (claudin-3 [5]): no claudin-3 was detected
- ratio of VPA to HS, claudin-3 peptide isobaric tag signal in serum (claudin-3 [6]): 0.425
- HS-induced increase of circulating CINC-1 (ELISA) (CINC-1 [7]): significantly attenuated this effect
- effects on lung CINC-1 levels (CINC-1 [8]): not statistically significant
- lung CINC-1 mRNA levels (CINC-1 mRNA): no significant changes between groups
